PubChem BioAssay AID1918944 (Molecular Pharmacology Branch, DTP, NCI, 2023)

System: 786-0 complex spheroid viability
Test: Anticancer human tumor 786-0 cell line growth inhibition;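 further: spheroids exposed to agents for seven days before readout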
Conditions: for IC50: curve of first compound; for viability, T/C: stronger effect = lower value
Procedure, shortened: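 Drug combinations with the LSD1 inhibitor iadademstat tested on tumor cells co-cultured as spheroids with endothelial cells and mesenchymal stem cells. Concentrations descended in half-log increments from clinical Cmax or 10 microM.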

[1] = second compound 0.1 µM, first compound 0.00949 µM
[2] = second compound 0.1 µM, first compound 0.03 µM
[3] = second compound 0.1 µM, first compound 0.0949 µM
[4] = second compound 0.1 µM, first compound 0.3 µM
[5] = second compound 0.1 µM, first compound 0.949 µM
[6] = second compound 0.1 µM, first compound 3 µM
[7] = second compound 0.316 µM, first compound 0.00949 µM
[8] = second compound 0.316 µM, first compound 0.03 µM
[9] = second compound 0.316 µM, first compound 0.0949 µM
[10] = second compound 0.316 µM, first compound 0.3 µM
[11] = second compound 0.316 µM, first compound 0.949 µM
[12] = second compound 0.316 µM, first compound 3 µM
[13] = second compound 1 µM, first compound 0.00949 µM
[14] = second compound 1 µM, first compound 0.03 µM
[15] = second compound 1 µM, first compound 0.0949 µM
[16] = second compound 1 µM, first compound 0.3 µM
[17] = second compound 1 µM, first compound 0.949 µM
[18] = second compound 1 µM, first compound 3 µM
[19] = second compound 3.16 µM, first compound 0.00949 µM
[20] = second compound 3.16 µM, first compound 0.03 µM
[21] = second compound 3.16 µM, first compound 0.0949 µM
[22] = second compound 3.16 µM, first compound 0.3 µM
[23] = second compound 3.16 µM, first compound 0.949 µM
[24] = second compound 3.16 µM, first compound 3 µM
[25] = second compound 10 µM, first compound 0.00949 µM
[26] = second compound 10 µM, first compound 0.03 µM
[27] = second compound 10 µM, first compound 0.0949 µM
[28] = second compound 10 µM, first compound 0.3 µM
[29] = second compound 10 µM, first compound 0.949 µM
[30] = second compound 10 µM, first compound 3 µM

| Structure (SMILES) | IC50 (second compound 0.1 µM) [nM] | IC50 (second compound 0.316 µM) [nM] | IC50 (second compound 1 µM) [nM] | IC50 (second compound 3.16 µM) [nM] | IC50 (second compound 10 µM) [nM] | viability, T/C [1] [%] | viability, T/C [2] [%] | viability, T/C [3] [%] | viability, T/C [4] [%] | viability, T/C [5] [%] | viability, T/C [6] [%] | viability, T/C [7] [%] | viability, T/C [8] [%] | viability, T/C [9] [%] | viability, T/C [10] [%] | viability, T/C [11] [%] | viability, T/C [12] [%] | viability, T/C [13] [%] | viability, T/C [14] [%] | viability, T/C [15] [%] | further results |
| --- | --- | --- | --- | --- | --- | --- | --- | --- | --- | --- | --- | --- | --- | --- | --- | --- | --- | --- | --- | --- | --- |
| NS(=O)(=O)OCC1CC(n2ccc3c(NC4CCc5ccccc54)ncnc32)CC1O (stereo not given) + NC1CCC(NC2CC2c2ccccc2)CC1 | 125 | 139 | 153 | 133 | 104 | 111 | 86.7 | 65.6 | 13.4 | 3.43 | 5.07 | 115 | 87.3 | 71.4 | 15.2 | 3.67 | 5.22 | 113 | 94.6 | 74.2 | viability, T/C [16]: 17.9%; viability, T/C [17]: 3.16%; viability, T/C [18]: 4.86%; viability, T/C [19]: 101%; viability, T/C [20]: 78.9%; viability, T/C [21]: 67.3%; viability, T/C [22]: 15.5%; viability, T/C [23]: 3.16%; viability, T/C [24]: 3.27%; viability, T/C [25]: 73.6%; viability, T/C [26]: 58.5%; viability, T/C [27]: 54.6%; viability, T/C [28]: 15.5%; viability, T/C [29]: 1.53%; viability, T/C [30]: 1.72% |
| NS(=O)(=O)OCC1CC(n2ccc3c(NC4CCc5ccccc54)ncnc32)CC1O (stereo not given) + NC1CC1c1ccc(-c2cccc(O)c2)cc1 | 190 | 178 | 168 | 175 | 165 | 113 | 96.6 | 94 | 21 | 9.54 | 13.7 | 104 | 92.9 | 88.5 | 18.2 | 9.34 | 14.3 | 117 | 98.6 | 79.1 | viability, T/C [16]: 20.3%; viability, T/C [17]: 9.8%; viability, T/C [18]: 15.8%; viability, T/C [19]: 110%; viability, T/C [20]: 88.1%; viability, T/C [21]: 83.4%; viability, T/C [22]: 20.8%; viability, T/C [23]: 10.9%; viability, T/C [24]: 16.5%; viability, T/C [25]: 99.9%; viability, T/C [26]: 89%; viability, T/C [27]: 76.6%; viability, T/C [28]: 21.3%; viability, T/C [29]: 13%; viability, T/C [30]: 15.4% |
